Compound | melting point
COc1ccc(N2CCN(c3c(C)c(C)c4c(c3C)C(NCc3ccccc3)C(C)(C)O4)CC2)cc1 (centres undefined) | 93 to 95 °C
O=Cc1sccc1Sc1ccccc1 | 99 to 100 °C
CCOC(=O)c1ccc(NCc2cc(Br)ccc2OCc2ccccc2)c(N)c1 | 135 °C
CC(=O)OC1CSC(Oc2ccc(-c3c(C)noc3C)nc2)C(OC(C)=O)C1OC(C)=O (centres undefined) | 172 °C
COc1cc2c(cc1OC(C)C)OC(C)(C)C(Cl)=C2Cl | 80 to 85 °C
CC(C)(C)C(=O)c1oc(N)nc1C(C)(C)C | 248 to 250 °C
COc1cc(NC(=O)CNC(=O)c2ccccc2)ccc1-c1cnco1 | 243 to 245 °C
O=C1CCC(c2ccc([N+](=O)[O-])cc2)CC1 | 160 to 162 °C
COC(=O)CCCC#Cc1nc(C(F)(F)F)ccc1N | 49 °C
O=C(O)COc1cccc2c1CCc1sc(S(=O)(=O)C(c3ccccc3)c3ccccc3)nc1-2 | 219 to 221 °C
CCCCCCCCCCCCCCCCCC(=O)Oc1ccccc1C(=O)OCC | 50.5 to 53.5 °C
COC(=O)C(C)Oc1ccc(Oc2ncc(Cl)cc2N)cc1 (centres undefined) | 92 to 94 °C
Cc1ccc(S(=O)(=O)N2[C@@H](CC(=N)NO)CC[C@H]2c2ccc(F)cc2)cc1 (racemic) | 84 °C
Nc1ccc(C=CC(=O)N2CCc3c([nH]c4ccccc34)C2c2ccc3c(c2)CCO3)cc1 (centres undefined) | 183 °C
OC1CCCc2nc3cc(F)ccc3c(NCc3ccccc3C(F)(F)F)c21 (centres undefined) | 149 to 153 °C
Cc1[nH]c(-c2ccccc2)nc1C(=O)C=CN(C)C | 218 to 222 °C
CC(C)(C)OC(=O)C(Nc1ccccc1)c1ccccc1Cl (racemic) | 74 °C
COc1ccc(/C=C/[N+](=O)[O-])c(F)c1 | 80 to 82 °C
COC(=O)c1ccc(CCc2cc3cc(C#N)ccc3o2)cc1 | 114 to 115 °C
COc1ccc(-n2nc(OC(C)C)cc2-c2ccc(OCCNC(N)=O)cc2)cn1 | 120 °C
O=C(NCCc1c[nH]cn1)c1[nH]c2ccc(Cl)cc2c1S(=O)(=O)c1ccccc1 | 220 to 222 °C
Cc1ccccc1-c1c(NC(=O)Nc2ccc(F)cc2F)cnc2cc3c(cc12)CCC3 | 252 to 254 °C
CC(c1oc2ccccc2c(=O)c1-c1cccc(F)c1)n1nc(-c2cc(F)c(O)c(F)c2)c2c(N)ncnc21 (centres undefined) | 253 to 257 °C
CC(=O)COc1cc(N2C(=O)c3ccccc3C2=O)ccc1N1C(=O)c2ccccc2C1=O | 300 °C
N#Cc1cc(S(=O)c2ccccc2)[nH]c1-c1ccc(Cl)cc1 (centres undefined) | 169 to 170 °C

Compound | melting point
CS(=O)(=O)c1ccc(-c2c(-c3ccccc3)c(=O)c2=O)cc1 | 139 to 140 °C
CCCCCCCCOc1ccc2c(OC(C)=O)c3cc4ccccc4cc3c(OC(C)=O)c2c1 | 107 to 111 °C
CC(C1CC(c2ccc(C(F)(F)F)cc2)C1)N(O)C(N)=O (centres undefined) | 147 to 148 °C
CCOC(=O)C(C)c1ccc(C(=O)c2ccc(Cl)cc2)n1C (centres undefined) | 67 to 68 °C
CCOc1ncnc(OC)c1NC(N)=S | 186 to 187 °C
COc1cc(C(=O)O)ccc1Cc1cccc2ccc(CCCCC(=O)N(C)C)cc12 | 125 to 127 °C
O=C(Nc1ccc2ncccc2c1)OCc1ccccc1 | 122 °C
Nc1cc([N+](=O)[O-])ccc1OCC(O)CN1C(=O)CCC1=O (centres undefined) | 200 °C
Nc1ncc(-c2cccs2)nc1C(=O)Nc1cccnc1 | 178 to 189 °C
CC(=O)OC(OC(C)=O)c1cccc(C(OC(C)=O)OC(C)=O)c1 | 110 to 130 °C
CCCCNc1c(C(=O)OCC)c(C)nc2nc(C)c(C)nc12 | 97 to 99 °C
CCOC(=O)C1=C(C)Nc2ccccc2NC1c1cccc([N+](=O)[O-])c1 (centres undefined) | 148 to 150 °C
N#Cc1ccc(C(=O)Cl)c(CCl)c1 | 44 to 44.5 °C
COc1ccc2c(c1)c1c3c(c(-c4ccccc4Cl)cc1n2CCO)C(=O)NC3=O | 255 to 257 °C
COC(=O)c1ccccc1S(=O)(=O)NC(=O)Nc1n[nH]c(SC)n1 | 147 to 153 °C
Clc1ccc(C2=NNCC2c2ccccc2)cc1 (centres undefined) | 156 to 162 °C
CC(C(=O)C(N)=O)c1ccc(N2Cc3ccccc3C2=O)cc1 (centres undefined) | 220 to 222 °C
OCc1cn2c(n1)CN=C(c1ccccn1)c1cc(I)ccc1-2 | 206 to 207 °C
Cn1c(CCN2CCN(c3cccc(C(F)(F)F)c3)CC2)nc2cc(Br)c3ccccc3c21 | 165 to 166 °C
CCn1cnc2c(Nc3cccc(C(=O)O)c3)nc(N[C@H]3CC[C@H](O)CC3)nc21 | 317 °C
CCC(=O)NNC(=O)C(=O)NC1CC(C)(C)NC(C)(C)C1 | 221 to 225 °C
CC(=O)Oc1ccc(CCC2CC(C)(OC(C)=O)CC(=O)O2)cc1 (centres undefined) | 72 to 75 °C
COc1ccc2c(c1)Cc1cc(C(C)C(=O)O)ccc1-2 (centres undefined) | 179 to 181 °C
Nc1ccc2sc3ccccc3c(=O)c2c1 | 227 to 229 °C
CON(C)C(=O)Nc1ccc(OCCc2ccc(C)cn2)cc1 | 110 to 112 °C

Compound | melting point
CC12CCC(C(=O)O)=CC1=CCC1C2CCC2(C)C(C(=O)c3ccc(F)cc3)CCC12 (centres undefined) | 255 °C
C=C(COc1ccccc1C=O)C(=O)OC | 50 to 52 °C
O=C(c1cccnc1)C(Cc1ccc(F)cc1)c1ccccc1 (centres undefined) | 100 to 102 °C
CC(=O)NCCc1cccc2ccc(OCCCO)cc12 | 141 to 142 °C
N#CC(C(=O)Nc1ccccc1)C(=O)c1nn(-c2ccccc2)c2c1Cc1ccc(Cl)cc1-2 (centres undefined) | 259 to 263 °C
CCCC(=O)Nc1n[nH]c2cc(-c3ccccc3)ccc12 | 220 °C
CC1(C)CC(=O)C2=C(C1)NC1=C(C(=O)CC(C)(C)C1)C2c1ccc(Br)c([N+](=O)[O-])c1 | > 300 °C
CN1Cc2c(Cl)ncn2-c2ccccc2C1=S | 198 °C
O=[N+]([O-])c1cc([N+](=O)[O-])c(Nc2nc(-c3ccc(Cl)cc3Cl)cs2)c(C(F)(F)F)c1 | 125 to 130 °C
OC1C(COCC(F)(F)F)OC(n2cnc3c(NC4CCOCC4)ncnc32)C1O (centres undefined) | 80 to 82 °C
O=c1[nH]c(=O)n(C2CC(OCc3ccccc3)C(COCc3ccccc3)C2O)cc1I (centres undefined) | 165 °C
CC(C)(C)[Si](C)(C)OC(CCCNCCc1ccccc1)COc1ccc2c(=O)cc(-c3ccccc3)oc2c1 (centres undefined) | 89 to 91 °C
COc1ccc(-c2ocnc2-c2cc(OC)c(Cl)c(OC)c2)cc1N | 146 to 148 °C
COc1cc2nc(N)nc(-c3ccccc3I)c2cc1OC | 225 to 230 °C
O=C1c2ccccc2C(=O)c2sc(-c3ccsc3)nc21 | 258 °C
COc1cc(C(C)N(O)C(N)=O)cc(OC)c1OC(C)c1ccccc1 (centres undefined) | 129 to 132 °C
O=c1[nH]c2ccccc2n1CCCN1CCC(c2nsc3ccccc23)CC1 | 185 to 187 °C
Cc1ncnn1-c1ccc([N+](=O)[O-])cc1F | 56 to 58 °C
C[C@@H]1c2ccccc2-c2ccc(Cl)cc2N1C(=O)c1ccc(O)cc1 | 274 to 276 °C
O=C(Nc1cccc2c1C(=O)c1c-2n[nH]c1-c1ccc(C(=O)N2CCC(N3CCCC3)CC2)s1)NN1CCOCC1 | 228 °C
CNC(=C[N+](=O)[O-])NCCCCCCCCCCCCNC(=C[N+](=O)[O-])NCCSCc1ccc(CN(C)C)o1 | 78 to 80 °C
Cc1cc(-c2ccc(Cl)cc2)nc(-c2cccc(-c3cccc(S(N)(=O)=O)c3)c2)n1 | 221 °C
CC(C#N)Oc1cccc(CN2C(=O)c3cccc(NC(=O)c4ccc(Cl)s4)c3C2=O)c1 (centres undefined) | 88 °C
O=Cc1ccc(N2C[C@H](CN3C(=O)c4ccccc4C3=O)OC2=O)cc1F | 167 to 169 °C
COC=Nc1c(S(=O)(=O)C(F)(F)F)c(-c2ncon2)nn1-c1c(Cl)cc(C(F)(F)F)cc1Cl | 158 °C

Compound | melting point
O=C(CNc1ccccc1)Nc1ccccc1C(=O)O | 192 to 193 °C
COc1c(CNS(=O)(=O)c2ccc(C)cc2)ccc2c1OCO2 | 150 to 151 °C
NC(=O)c1ncn2c1CN=C(c1ccccc1Cl)c1cc(Cl)ccc1-2 | > 300 °C
CN1CC(c2cccc(C(F)(F)F)c2)C(=O)C(c2ccccc2Cl)C1 (centres undefined) | 90 to 92 °C
C=C(F)C(F)(F)n1ncc(-c2ccc(S(N)(=O)=O)cc2)c(-c2ccc(F)cc2)c1=O | 230 to 232 °C
N#Cc1ccc(N2CCC(CCO)CC2)c2ccccc12 | 128 to 129 °C
COc1cc(C(N)=O)cc([N+](=O)[O-])c1OC | 182 to 185 °C
Nc1sc(-c2ccncc2)c(CN(C2CCCCC2)C2CCCCC2)c1C(=O)c1ccc(Cl)cc1 | 214 to 216 °C
Cc1cc2c(cc1-c1cccc(C=O)c1)C(C)(C)CCC2(C)C | 104 to 105 °C
CCCCCCCCCCN1CCN(O)C1=O | 68 to 69 °C
C#CCCCCn1ncc2c(N)c(C(=O)OCC)c(C)nc21 | 63 to 65 °C
CCOCc1nc2c(N)nc3c(c2n1CC1(O)CCCC1)NCCC3 | 207 to 208 °C
CSc1cc(Cl)ccc1C(=O)C(C#N)C(=O)c1cc(C(F)(F)F)cc(C(F)(F)F)c1 (centres undefined) | 146 to 149 °C
C=CCC(c1c(Cl)c(Cl)cc2[nH]c(=O)c(=O)[nH]c12)S(C)(=O)=O (centres undefined) | 270 to 272 °C
Oc1ccc2nc(-c3ccc(O)c(F)c3)cc(-c3ccc(Cl)cc3)c2c1 | 140 to 147 °C
N#Cc1ccc(NC(=O)C(=O)N2CCC(Cc3ccccc3)CC2)cc1 | 109 to 112 °C
CCCn1cc(-c2c(-c3ccc(F)cc3)nn3ccncc23)ccc1=O | 183 to 184 °C
COc1cc(C(=O)C#CCOC(=O)c2cc(OC)c(OC)c(OC)c2)cc(OC)c1OC | 106 to 108 °C
OC1CSC(Oc2ccc(-c3ccc(OC(F)(F)F)cc3)nc2)C(O)C1O (centres undefined) | 184 to 186 °C
COc1cccc2c1C(=O)c1ccccc1C21CCN(C)CC1 | 170 to 172 °C
CNc1nc(NS(=O)(=O)c2ccc(N)cc2)cc(N2CCC2)n1 | 295 to 296 °C
C=CCn1c(=O)[nH]c(=O)n(-c2ccccc2)c1=O | 63 to 65 °C
Cc1ccccc1C(Oc1cc(OCc2ccoc2)ccc1C#N)C(=O)O (racemic) | 141 to 143 °C
CS(=O)(=O)c1ccc2c(c1)[nH]c(=O)c(=O)n2C1CCCCC1 | > 300 °C
